This data set is described as follows: Solubility test: 20 mg sample in 10 g solvent, evaluated visually. Conditions: 20 mg in 10 g solvent (0.2 mass %), room temperature / 25° C., visual. Format: physicochemical. As for the experimental part:
For evaluating the applicability thereof to a wet process, the compound to be analyzed was tested in a dissolution test in various solvents. As a comparative case, anthracene was tested for the dissolution test.
Concretely, 20 mg of the sample was weighed, and the solubility thereof (0.2 mass %) in 10 g of a solvent at room temperature was visually evaluated.
In Table 1, A means soluble, and B means insoluble. The standard of “soluble” was set as the case where the compound dissolved in an amount of 0.2% by mass or more at a solvent temperature of 25° C.

On to `c1ccc2cc3ccccc3cc2c1` [Comparative Example 3, Anthracene], for which the “Solubility Test Cyclohexane” value (cyclohexane) is “B (B means insoluble)”. Where the note is “hexane”, the “Solubility Test Hexane” value is recorded as “B (B means insoluble)”.

These data come from patent US20150284305A1, “FLUORINE-CONTAINING COMPOUND AND METHOD FOR PRODUCING SAME” (Asahi Glass Company, Limited, priority 2012, published 2015).
